Experimental data reported in patent US20250034264A1, “REGULATING T CELL IMMUNE RESPONSE THROUGH IGF-I RECEPTOR (IGF-1R)” (The Regents of the University of Michigan, priority 2021, published 2025).

Key:
Assay type in all cases: cell-based, human
GD-OF [1] = assay: IL-23p19 and IL-12p35 mRNA expression, real-time PCR
Protocol: FIGS. 10A-10F are graphs showing the divergent effect of teprotumumab on bTSH induced IL-23p19 and IL-12p35 expression on fibrocytes and GD-OF. Rinsed fibrocyte and GD-OF monolayers were incubated with or without 50 μg/ml teprotumumab (FIGS. 10A and 10B) or 1 μM linsitinib (FIGS. 10C and 10D) and human Isotype IgG for 7-9 d, and bTSH (5 mIU/mL) was added for 6 h. Harvested RNA was reverse transcribed and isolated cDNA was subjected to quantitative real-time PCR for IL-23p19 and IL-12p35 mRNA levels. Values were normalized to their respective GAPDH levels and are expressed as the mean±SD of three independent determinations. Experiments were repeated three times. FIGS. 10E and 10F are graphs showing the levels of IL-23 protein when rinsed fibrocyte and GD-OF monolayers were incubated with or without 50 μg/ml teprotumumab. **, p<0.01; ***. P<0.001.
FIGS. 15A-15C are dose-response curves of teprotumumab effects on IL-6 expression/induction by bTSH (FIG. 15A); HAS2 expression/induction by bTSH (FIG. 15B); IL-12p35 expression/induction by bTSH (FIG. 15C). Following indicated treatments, cellular RNA was harvest from rinsed GD-OF cell layers, reversed transcribed and subjected to real-time PCR. Values were normalized to their respective GAPDH levels.
Graves' disease-orbital fibroblast (GD-OF) preparation and cultivtion GD-OF were isolated from orbital adipose/connective tissues removed during surgical orbital decompression surgery, as described ((Smith, T. J., et al., (2002) The Journal of clinical endocrinology and metabolism 87, 385-392). While the fraction of CD34^+ OF comprising GD-OF strains vary somewhat, the ratios of CD34^+/CD34^− OF are usually 50:50 in the early passages utilized in these studies (passages 2-11). Pure CD34^+ OF and CD34^− OF subsets were generated by staining for 30 m at 4° C. with fluorescein isothiocyanate-conjugated […] CD34 or its isotype control followed by cytometric cell sorting using a FACSAria III (BD Biosciences) instrument. Cells were sorted under sterile conditions into either CD34^+ OF, and CD34 OF subsets which were then re-cultured and treated without or with bTSH (5 mU/mL) or the other test compounds, as indicated, for 6 hrs, as indicated.
(§1) Real-time PCR Confluent fibrocyte and GD-OF cultures were incubated with bTSH (5 mIU/mL), teprotumumab (50 μg/mL) or linsitinib (1 μM) for the time intervals indicated, washed with PBS and RNA was extracted with the Aurum Total RNA Mini Kit (cat. #732-6820, Bio-Rad, Hercules, CA). Cellular RNA (2 μg) was reverse transcribed using QuantiTect Reverse Transcription kit (cat. #205314, Qiagen (Germantown, MD) and real-time PCR was performed using an Applied Biosystems instrument with QuantiTect SYBR Green PCR kit (cat. no. 204143; Qiagen, Frederick, MD). Primer sequences were as follows.

fibrocytes [2] = assay: IL-10, icIL-1RA, sIL-1RA expression (PCR, ELISA)
Protocol: FIGS. 11A-11F are graphs showing teprotumumab attenuates bTSH induced IL-10 while enhancing icIL-1RA and sIL-1RA expression in fibrocytes and GD-OF. Fibrocyte cultures were treated with teprotumumab (50 μg/ml), rhSlit2 (50 ng/ml) or human Isotype IgG for 7-9 d, with bTSH (5 mIU/mL) for final 6 h. RNA was extracted and reverse transcribed. Isolated cDNA was subjected to quantitative real-time PCR for IL-10 (FIGS. 11A and 11B), icIL-1RA (FIGS. 11C and 11D). Media and cellular proteins were collected and subjected to specific ELISAs for icIL-1RA and sIL-1RA (FIGS. 11E, 11F, 11G, and 11H). PCR values were normalized to their respective GAPDH levels. icIL-1RA and sIL-1RA protein levels were normalized to cellular protein levels. Data are expressed as the mean±SD of three independent determinations. Experiments were repeated three times. **, p<0.01; ***. P<0.001.
IL-12, IL-23, IL-10, HA and BAFF ELISAs. Confluent cultures were treated with nothing or teprotumumab (50 μg/mL) for 5 d, without or with bTSH (5 mU/mL) for the intervals indicated or 72 h. Media and rinsed cell layers were homogenized in 0.1M NaCl and assayed for HA content using an ELISA kit (K-1200) from Echelon Biosciences Inc. (Salt Lake City, UT) according to manufacturer's instructions. A BAFF specific ELISA, purchased from R & D systems, was used in accordance with the manufacturer's instructions.
as §1

GD-OF [3] = assay: Hyaluronan (HA) production, ELISA; settings: 50 μg/ml, over 96 h
Protocol: (§2) FIGS. 13A-13B are graphs showing the effect of teprotumumab on bTSH induced hyaluronan (HA) production in GD-OF (FIG. 13A) and fibrocytes (FIG. 13B). GD-OF were treated with or without teprotumumab (50 μg/ml) or human Isotype IgG (5 μg/ml) for 7-9 d and stimulated with bTSH (5 mIU/mL) for graded intervals indicated along the abscissa for 0 to 96h. Media were collected and subjected to HA ELISA. Values were normalized to respective cell layer protein levels and expressed as the mean±SD of three independent determinations. Experiments were repeated three times. FIGS. 13C-13F are graphs showing the divergent pattern of hyaluronan synthase (HAS) isoenzyme induction by bTSH in fibrocytes versus GD-OF and effects of teprotumumab (FIGS. 13C and 13D) and linsitinib (FIGS. 13E and 13F). Confluent monolayers of GD-OF and fibrocytes remained untreated or received teprotumumab (50 μg/ml) or linsitinib (1 μM) and human Isotype IgG for 7-9 d. Some cultures were treated with bTSH (5 mIU/mL) for 6h. Cellular RNA was harvested mRNA was reverse transcribed, and cDNA subjected to quantitative real-time PCR for HAS1 and HAS2. Values were normalized to their respective GAPDH levels and are expressed as the mean±SD of three independent determinations. Experiments were repeated three times. *, P<0.05; **, p<0.01; ***. P<0.001.
(§3) IL-12, IL-23, IL-10, HA and BAFF ELISAs. […]

fibrocytes [4] = assay: Hyaluronan (HA) production, ELISA; settings: 50 μg/ml
Protocol: as §2, §3

[5] = teprotumumab 50 μg/ml or linsitinib 1 μM, 7-9 d
[6] = teprotumumab 50 μg/ml or rhSlit2 50 ng/ml, 7-9 d

teprotumumab
dose dependence of effects (FIG. 15: IL-6, HAS2, IL-12p35 expression/induction by bTSH) (GD-OF [1]; dose-response curves, GD-OF): dose-dependent | IL-12p35 expression, basal and induction by bTSH (GD-OF [1]; [5]): enhances | IL-23p19 expression, basal and induction by bTSH (GD-OF [1]; [5]): inhibited | effects on icIL-1RA protein levels (fibrocytes [2]; ELISA, fibrocytes): minimal | IL-10 mRNA, basal and bTSH-provoked expression (fibrocytes [2]; [6]): downregulated | basal and bTSH-dependent icIL-1RA and sIL-1RA mRNA levels (fibrocytes [2]; [6]): upregulated | effects of bTSH on HA synthesis (GD-OF [3]): enhanced | HA synthesis, bTSH with teprotumumab (fibrocytes [4]): synergism
